The values that follow come from patent publication US7601850B2, “Phenyl-thiophene type vitamin D receptor modulators” (Eli Lilly and Company, priority 2002, dated 2009).

In the first experiment the test system is rat osteocalcin promoter. Description: OCN (osteocalcin) promoter assay in RG-15 (ROS 17/2.8) cells.
Details: not given
In kind it is cell-based. The method, then:
4. The OCN Promoter test is described in the “Assay” section of the Description, infra.
3. The OCN (Osteocalcin) Promoter Assay
The OCN Promoter Assay is an indicator and marker for osteoporosis. Desired assay results are EC50 less than or equal to 325 nM. Preferred assay results are less than 50 nM.
(3) Materials and Method for The OCN Promoter Assay:
The activation of osteocalcin by VDR ligands was evaluated in a rat osteoblast-like cell line RG-15 (ROS 17/2.8) stably expressing rat osteocalcin promoter fused with luciferase reporter gene. The stable cell lines were established as reported before (Activation of Osteocalcin Transcription involves interaction of protein kinase A- and Protein kinase C-dependent pathways. Boguslawski, G., Hale, L. V., Yu, X.-P., Miles, R. R., Onyia, J. E., Santerre R. F., Chandrasekhar, S. J Biol. Chem. 275, 999-1006, 2000). Confluent RG-15 cells maintained in DMEM/F-12 medium (3:1) containing 5% FBS, 300 µg/ml G418 and at 37° C. under 5% CO2/95% air atmosphere were trypsinized (0.25% trypsin) and plated into white opaque 96-well cell culture plates (25000 cells/well). After 24 hr, cells (in DMEM/F-12 medium+2% FBS) were treated with various concentrations of compounds, dissolved in DMSO. The final DMSO concentration remained at 0.01% (v/v). After 48 hr treatment, the medium was removed, cells were lysed with 50 µl of lysis buffer (From Luciferase reporter assay system, Roche Diagnostics, Indianapolis, Ind.) and assayed for luciferase activity using the Luciferase Reporter Gene Assay kit from Boehringer Mannheim as per manufacturer's specifications.
As for `CCC(CC)(c1ccc(OCC(O)C(C)(C)C)c(C)c1)c1cc(C)c(C(=O)Nc2nnn[nH]2)s1` (single isomer, unassigned) [Ex. 37, 3′-[4-(2-hydroxy-3,3-dimethylbutoxy)-3-methylphenyl]-3′-[5-(tetrazol-5-yl-aminocarbonyl)-4-methylthiophen-2-yl]pentane], the EC50 (in general, the concentration needed to bring the measured effect to its halfway point) came out at 240 nM.
In the case of `CCC(CC)(c1ccc(OCC(O)C(C)(C)C)c(C)c1)c1cc(C)c(C(=O)NCCS(C)(=O)=O)s1` (single isomer, unassigned) [Ex. 40, 5-[1-ethyl-1-[4-(2-hydroxy-3,3-dimethyl-butoxy)-3-methylphenyl]propyl]-3-methylthiophene-2-carboxylic acid (2-methylsulfonyl-ethyl) amide], the EC50 was found to be 613 nM.
Still for that read-out and setting: as for `CCC(CC)(c1ccc(OCC(O)C(C)(C)C)c(C)c1)c1cc(C)c(C(=O)N[C@@H](C)C(=O)OC)s1` (single isomer, unassigned) [Ex. 54, L-2-[(5-{1-Ethyl-1-[4-(2-hydroxy-3,3-dimethyl-butoxy)-3-methyl-phenyl]-propyl}-3-methyl-thiophene-2-carbonyl)amino]propionic acid methyl ester], the figure is 27.5 nM; as for `CCC(CC)(c1ccc(OCC(O)C(C)(C)C)c(C)c1)c1cc(C)c(C(=O)N[C@H](C)C(=O)OC)s1` (single isomer, unassigned) [Ex. 56, D-2-[(5-{1-Ethyl-1-[4-(2-hydroxy-3,3-dimethyl-butoxy)-3-methyl-phenyl]-propyl}-3-methyl-thiophene-2-carbonyl)-amino]-propionic acid methyl ester], 164 nM.
Same read-out and setting: as for `CCC(CC)(c1ccc(OCC(O)C(C)(C)C)c(C)c1)c1cc(C)c(C(=O)N[C@@H](C)C(=O)OC)s1` (single isomer, unassigned) [Ex. 64, L-2-[(5-{1-Ethyl-1-[4-(2-hydroxy-3,3-dimethyl-butoxy)-3-methyl-phenyl]-propyl}-3-methyl-thiophene-2-carbonyl)-amino]-propionic acid methyl ester], the figure is 4.1 nM.
Same read-out and setting: as for `CCC(CC)(c1ccc(OCC(O)C(C)(C)C)c(C)c1)c1cc(C)c(C(=O)NC(C)(C)C(=O)OC)s1` (single isomer, unassigned) [Ex. 70, 2-[(5-{1-Ethyl-1-[4-(2-hydroxy-3,3-dimethyl-butoxy)-3-methyl-phenyl]-propyl}-3-methyl-thiophene-2-carbonyl)-amino]-2-methyl-propionic acid methyl ester], the figure is 25.8 nM.
Consider `CCC(CC)(c1ccc(OCC(O)C(C)(C)C)c(C)c1)c1cc(C)c(C(=O)N2CCC[C@H]2C(=O)OC)s1` (single isomer, unassigned) [Ex. 72, L-1-(5-{1-Ethyl-1-[4-(2-hydroxy-3,3-dimethyl-butoxy)-3-methyl-phenyl]-propyl}-3-methyl-thiophene-2-carbonyl)pyrrolidine-2-carboxylic acid methyl ester], for which the EC50 was 219 nM.
On to `CCC(CC)(c1ccc(OCC(O)C(C)(C)C)c(C)c1)c1cc(C)c(C(=O)N2CCC[C@H]2C(=O)OC)s1` (single isomer, unassigned) [Ex. 74, L-1-(5-{1-Ethyl-1-[4-(2-hydroxy-3,3-dimethyl-butoxy)-3-methyl-phenyl]-propyl}-3-methyl-thiophene-2-carbonyl)-pyrrolidine-2-carboxylic acid methyl ester], for which the EC50 stood at 479 nM.
Still for that read-out and setting: as for `CCC(CC)(c1ccc(OCC(O)C(C)(C)C)c(C)c1)c1cc(C)c(C(=O)NC(C)(C)C(=O)OC)s1` (single isomer, unassigned) [Ex. 76, 2-[(5-{1-Ethyl-1-[4-(2-hydroxy-3,3-dimethyl-butoxy)-3-methyl-phenyl]-propyl}-3-methyl-thiophene-2-carbonyl)-amino]-2-methyl-propionic acid methyl ester], the figure is 57.8 nM; as for `CCC(CC)(c1ccc(OCC(C)(O)C(C)(C)C)c(C)c1)c1ccc(C(=O)O)s1` (single isomer, unassigned) [Ex. 105, 3′-[4-(2-hydroxy-2,3,3-trimethylbutoxy)-3-methylphenyl]-3′-[5-carboxy-thiophen-2-yl]pentane], 736 nM.
Consider `CCCc1cc(C(CC)(CC)c2ccc(C(=O)O)s2)ccc1OCC(C)(O)C(C)(C)C` (single isomer, unassigned) [Ex. 112, 3′-[4-(2-hydroxy-2,3,3-trimethylbutoxy)-3-n-propylphenyl]-3′-[5-carboxy-thiophen-2-yl]pentane], for which the EC50 worked out at 5 nM.

Staying with this experiment, now noted: Rattus norvegicus.
On to `CCC(CC)(c1ccc(C(=O)NCC(=O)OC)c(C)c1)c1cc(C)c(CCC(O)C(C)(C)C)s1` (single isomer, unassigned) [Ex. 25A], for which the EC50 was 9.9 nM.
Same read-out and setting: as for `CCC(CC)(c1ccc(C(=O)NCC(=O)O)c(C)c1)c1cc(C)c(CCC(O)C(C)(C)C)s1` (single isomer, unassigned) [Ex. 27], the figure is 49.1 nM.
On the same count and under the same terms, next, `CCOC(=O)CCc1ccc(C(CC)(CC)c2cc(C)c(CCC(O)C(C)(C)C)s2)cc1C` (single isomer, unassigned) [Ex. 28]: 0.76 nM; `CCC(CC)(c1ccc(CCC(=O)O)c(C)c1)c1cc(C)c(CCC(O)C(C)(C)C)s1` (single isomer, unassigned) [Ex. 30A]: 11.2 nM; `CCC(CC)(c1ccc(OCC(O)C(C)(C)C)c(C)c1)c1cc(C)c(C(=O)N[C@@H](CC(=O)OC)C(=O)OC)s1` (single isomer, unassigned) [Ex. 58, L-2-[(5-{1-ethyl-1-[4-(2-hydroxy-3,3-dimethyl-butoxy)-3-methyl-phenyl]-propyl}-3-methyl-thiophene-2-carbonyl)-amino]-succinic acid dimethyl ester]: 277 nM.
On the same count and under the same terms, next, `CCC(CC)(c1ccc(OCC(O)C(C)(C)C)c(C)c1)c1cc(C)c(C(=O)N2CCC[C@H]2C(=O)O)s1` (single isomer, unassigned) [Ex. 73, L-1-(5-{1-Ethyl-1-[4-(2-hydroxy-3,3-dimethyl-butoxy)-3-methyl-phenyl]-propyl}-3-methyl-thiophene-2-carbonyl)pyrrolidine-2-carboxylic acid]: 266 nM.
`CCC(CC)(c1ccc(OCC(O)C(C)(C)C)c(C)c1)c1cc(C)c(C(=O)N(C)CC(=O)O)s1` (single isomer, unassigned) [Ex. 122, N-methyl-2-[(5-{1-ethyl-1-[4-(2-hydroxy-3,3-dimethyl-butoxy)-3-methyl-phenyl]-propyl}-3-methyl-thiophene-2-carbonyl)-methylamino]-acetic acid]: the EC50 is 67.5 nM.
Take `CCC(CC)(c1ccc(OCC(O)C(C)(C)C)c(C)c1)c1cc(C)c(CO)s1` (single isomer, unassigned) [Ex. 126]: the EC50 was 111 nM.
Regarding `CCC(CC)(c1ccc(OCC(O)C(C)(C)C)c(C)c1)c1cc(C)c(-c2n[nH]c(=O)o2)s1` (single isomer, unassigned) [Ex. 171], the EC50 was 92.6 nM.
On the same count and under the same terms, next, `Cc1cc(C2(c3ccc(OCC(=O)C(C)(C)C)c(C)c3)CCCCC2)ccc1OCC(=O)C(C)(C)C` [CC, 1-(4-{1-[4-(3,3-Dimethyl-2-oxo-butoxy)-3-methyl-phenyl]-cyclohexyl}-2-methyl-phenoxy)-3,3-dimethyl-butan-2-one, reference compound]: above 1000 nM; `CCC(CC)(c1ccc(OCC(=O)C(C)(C)C)c(C)c1)c1cc(C)c(C(=O)OC)s1` [Ex. 1]: 140 nM; `CCC(CC)(c1ccc(OCS(C)(=O)=O)c(C)c1)c1cc(C)c(CCC(=O)C(C)(C)C)s1` [Ex. 13]: 313 nM.
In the case of `CCC(CC)(c1ccc(OCS(C)(=O)=O)c(C)c1)c1cc(C)c(CC[C@@H](O)C(C)(C)C)s1` [Ex. 14], the EC50 turned out to be 46.6 nM.
The same measure, in the same setting: next, `CCC(CC)(c1ccc(C(=O)OC)c(C)c1)c1cc(C)c(CCC(=O)C(C)(C)C)s1` [Ex. 20]: 862 nM; `CCC(CC)(c1ccc(C(=O)OC)c(C)c1)c1cc(C)c(CCC(O)C(C)(C)C)s1` (centres unmarked) [Ex. 21]: 140 nM; `CCC(CC)(c1ccc(C(=O)NCC(=O)OC)c(C)c1)c1cc(C)c(CCC(O)C(C)(C)C)s1` (centres unmarked) [Ex. 24]: 4.7 nM.
Same read-out and setting: next, `CCC(CC)(c1ccc(C(=O)NCC(=O)O)c(C)c1)c1cc(C)c(CCC(O)C(C)(C)C)s1` (centres unmarked) [Ex. 26]: 7.95 nM.
Same read-out and setting: as for `CCC(CC)(c1ccc(OCC(=O)OC)c(C)c1)c1cc(C)c(CCC(O)C(C)(C)C)s1` (centres unmarked) [Ex. 31], the figure is 7.8 nM; as for `CCC(CC)(c1ccc(OCC(=O)O)c(C)c1)c1cc(C)c(CCC(O)C(C)(C)C)s1` (centres unmarked) [Ex. 32], 9.35 nM.
With `CCC(CC)(c1ccc(OCC(O)C(C)(C)C)c(C)c1)c1cc(C)c(C(=O)NCCS(C)(=O)=O)s1` (centres unmarked) [Ex. 38, 5-[1-ethyl-1-[4-(2-hydroxy-3,3-dimethyl-butoxy)-3-methylphenyl]propyl]-3-methylthiophene-2-carboxylic acid (2-methylsulfonyl-ethyl) amide], the EC50 was 380 nM.
The same measure, in the same setting: as for `CCC(CC)(c1ccc(OCC(=O)C(C)(C)C)c(C)c1)c1cc(C)c(C(=O)NCCS(C)(=O)=O)s1` [Ex. 41, 5-{1-[4-(3,3-Dimethyl-2-oxo-butyoxy)-3-methyl-phenyl]-1-ethyl-propyl}-3-methyl-thiophene-2-carbolic acid (2-methanesulfonyl-ethyl]-amide], the figure is 300 nM.
